Source: patent US12486298B2, “Fucosyltransferase specific inhibition using fucose mimetics” (THE FLORIDA INTERNATIONAL UNIVERSITY BOARD OF TRUSTEES, priority 2020, dated 2025)

Test system: E-selectin bearing HUVEC
Assay: Parallel plate flow chamber: exofucosylated RPMI-8402 cells on TNFα-stimulated HUVEC under shear
Type: cell-based, human
Details: for number of interacting RPMI-8402 cells on HUVEC: shear 0.5-8 dynes/cm^2
Protocol: Human umbilical vein endothelial cells (HUVEC, Lonza) were cultured in Endothelial Cell Growth Media (R&D Systems) in Bioflux microfluidic chambers that had been previously coated with 250 ug/ml fibronectin (BD Biosciences). Then 4 hours prior to rolling assay, cells were activated with 40 ng/ml TNFα (R&D Systems). Different cell subsets, based on exofucoslylation/mimetic conditions, were then infused into the chamber at a concentration of 2×10^6/ml and shear stress was applied from 0.5-8 dynes/cm^2. Then RPMI-8402 subsets were loaded into chambers containing monolayers of E-selectin bearing HUVECs with an initial shear rate of 0.5 dyne/cm^2, with stepwise increments in the shear rate up to 8 dynes/cm^2. The number of tethering/interacting RPMI-8402 cells on HUVEC were quantified at each shear rate and averaged across three different fields of view.
As sLe^x is the primary ligand for E-selectin which is induced on endothelial cells by inflammatory cytokine, e.g., TNFα the biological impacts of mimetic 1's inhibition of sLe^x binding to E-selectin under hemodynamic shear was evaluated. To this end, RPMI-8402 cells were left untreated or exofucosylated with 1.0 mM GDP-Fuc, 1.0 mM GDP-Fuc and 2.0 mM mimetic 1 or preincubated with FTVI and 2.0 mM mimetic 1 for 45 min followed by addition of 1.0 mM GDP-Fuc for 1 h and the presence of sLe^x determined by flow cytometry (FIGS. 6A and 6B). The RPMI-8402 cells treated as outlined above were then loaded in a parallel plate flow chamber seeded with monolayers of human umbilical vein endothelial cells (HUVEC) that had been stimulated with TNFα (FIG. 6C). The RPMI cells were introduced under defined fluid shear conditions to determine inhibition.

CC1OC2Oc3ccc(CC(=O)O)cc3SC2C(O)C1O (stereo not drawn) [mimetic 1]
number of interacting RPMI-8402 cells on HUVEC (exofucosylated with FTVI, 1.0 mM GDP-Fuc and 2.0 mM mimetic 1): reduced the number of interacting cells | ability of cells to adhere to HUVEC (physiologically relevant shear conditions): reduced the ability of cells to adhere to HUVEC | number of interacting RPMI-8402 cells on HUVEC (preincubation with FTVI and 2.0 mM mimetic 1 for 45 min, then 1.0 mM GDP-Fuc for 1 h): reduced the number of interacting cells
